{
  "source": "patent US7479374B2",
  "about": "“Triacylglycerol-deficient fission yeast and its uses” (priority 2003, dated 2009)",
  "type_in_all_cases": "cell-based, Schizosaccharomyces pombe",
  "key": {"[1]": {"system": "WT and DKO S. pombe cells", "experiment": "DHS, PHS or C2-ceramide treatment: viability and DNA fragmentation", "details": "various concentrations, 0-3 hours", "experimental": "(§1) Cell viability assay: For cell viability at different growth phases, cells were grown to various densities in YES (determined by OD595). The number of viable cells was obtained after cells were diluted properly in distilled water and plated in triplicates on YES agar. Colonies were scored after 3 days of incubation at 30° C. For cell viability after various treatments, cells were grown to early log phase (OD595=0.1) before lipids or other chemicals were added. After treatment, cells were collected and viability was analyzed as described above.\n(§2) DAG, fatty acid and ceramide treatment: For fatty acid treatment, palmitic acid and oleic acid were dissolved in chloroform as 500 mM stock. Each microliter of fatty acids was dissolved in 12.5 μl tyloxapol-enthanol (1:1) and added into growth medium. Wild type and DKO strains were grown to early log phase and then incubated in medium containing different concentrations (0.5 mM, 0.8 mM and 1 mM) of palmitic acid or oleic acid for 0-3 hours. Control groups were cultured in the medium added with the same volume of tyloxapol-enthanol without fatty acids. After incubation, cells were analyzed for viability and DNA fragmentation. DiC8 DAG and ceramide were dissolved in DMSO. The working concentrations for DAG was 0.1 mM, 0.2 mM or 0.3 mM, while for ceramide was 10 μM or 20 μM (23, 24).\n(§3) 4′,6-diamidino-2-phenylindole (DAPI) staining: Cells were fixed with 3.7% formaldehyde for 10 minutes, washed once with PBS containing 4% NP40 and twice with PBS, and then stained with DAPI. Cells were viewed using a Leica DMLB microscope.\n(§4) Terminal deoxynucleotidyl transferase(TdT)-mediated dUTP nick-end labeling (TUNEL): Cells were fixed with 3.7% formaldehyde for 1 hr, digested with zymolase, washed with PBS, incubated in a permeabilization solution (0.1% Triton in 0.1% sodium citrate) for 2 minutes on ice, washed twice with PBS and incubated with 50 μl TUNEL mixtures for 1 hour at 37° C. Cells were washed with PBS twice and were viewed using a Leica DMLB microscope."}, "[2]": {"system": "DKO strain (S. pombe Δplh1 Δdga1 double deletion)", "experiment": "Cell viability assay (colony forming) after treatment", "experimental": "as §1, §2"}, "[3]": {"system": "DKO strain (S. pombe Δplh1 Δdga1 double deletion)", "experiment": "Detection of apoptotic markers: DAPI staining and TUNEL (DNA fragmentation)", "details": "for cells undergoing apoptosis in the presence of the inhibitor / rescue of palmitate-induced apoptosis: double deletion cells treated with 0.8 mM of palmitate; for apoptosis induced by fatty acid: DKO cells, early log phase, two hours (FIGS. 14-16)", "experimental": "as §2\nDetection of apoptotic markers: All assays in this section were performed as previously described (26).\nas §3, §4"}, "DKO cells [4]": {"system": "DKO cells", "experiment": "Production of reactive oxygen species (dihydroethidium)", "details": "for ROS production: incubation of log phase cells", "experimental": "Production of reactive oxygen species: ROS were detected by dihydroethidium (Sigma), which was used at 5 μg per ml cell culture. After incubation for 10 minutes, cells were viewed under a Leica DMLB microscope through a Texas Red filter. The free radical spin trap reagent 3,3,5,5,-tetramethyl-pyrroline N-oxide (TMPO) was used at 125 μg per ml cell culture. Cells were pretreated with […] for 2 hours before lipids were added."}, "DKO cells [5]": {"system": "DKO cells", "experiment": "Diacylglycerol kinase assay of cellular DAG level", "experimental": "(§5) Diacylglycerol kinase assay: The assay was conducted as described in the Biotrak assay reagents system (Amersham Biosciences). Wild type and DKO yeast cells were grown in YES medium to mid log phase and then treated with medium containing 0.8 mM palmitate or oleate. Cells were collected at different time points (0, 30, 60 and 120 minutes). DAG was extracted with other lipids and quantified through a phosphorylation reaction catalyzed by a bacterial DAG kinase."}, "wild type cells": {"system": "wild type cells", "experiment": "Diacylglycerol kinase assay of cellular DAG level, wild type", "details": "after 2-hour incubation with palmitate, from 1", "experimental": "as §5"}, "[6]": {"details": "mutant cells pretreated with TMPO (125 μg/ml) for 2 hours, then 1 mM palmitate for 2 hours"}, "[7]": {"details": "DKO strain, early log phase cells, various concentrations of diC8 DAG, 0-3 hours"}, "[8]": {"details": "caspase inhibitor added, data not shown"}},
  "note": "Residues, ends and D or L forms follow the SMILES beside them. *: point of attachment. Cbz = O=C(OCc1ccccc1)*; CH2F = FC*",
  "data": [
    {"smiles": "CCCCCCCCCCCCC/C=C/[C@@H](O)[C@H](CO)NC(C)=O", "note": "[C2-ceramide, N-acetylsphigosine]", "values": [
      {"measurement": "DNA fragmentation", "setting": "[1]", "result": "no DNA fragmentation was observed"},
      {"measurement": "killing of S. pombe cells", "setting": "[1]", "result": "could kill S. pombe cells at high concentrations"}
    ]},
    {"smiles": "CCCCCCCCCCCCCCC[C@@H](O)[C@@H](N)CO", "note": "[DHS, dihydrosphingosine]", "values": [
      {"measurement": "DNA fragmentation", "setting": "[1]", "result": "no DNA fragmentation was observed"},
      {"measurement": "killing of S. pombe cells", "setting": "[1]", "result": "could kill S. pombe cells at high concentrations"}
    ]},
    {"smiles": "CCCCCCCCCCCCCC[C@@H](O)[C@@H](O)[C@@H](N)CO", "note": "[PHS, phytosphingosine]", "values": [
      {"measurement": "DNA fragmentation", "setting": "[1]", "result": "no DNA fragmentation was observed"},
      {"measurement": "killing of S. pombe cells", "setting": "[1]", "result": "could kill S. pombe cells at high concentrations"}
    ]},
    {"smiles": "CC1(C)C=[N+]([O-])C(C)(C)C1", "note": "[TMPO, 3,3,5,5,-tetramethyl-pyrroline N-oxide]", "values": [
      {"measurement": "prevention of cell death", "setting": "[2]; [6]", "result": "prevent DNA fragmentation (FIG. 24) and cell death"},
      {"measurement": "prevention of DNA fragmentation", "setting": "[3]; [6]", "result": "prevent DNA fragmentation"},
      {"measurement": "scavenging of ROS", "setting": "DKO cells [4]; [6]", "result": "could effectively scavenge ROS"}
    ]},
    {"smiles": "CCCCCCCC(=O)OC[C@H](CO)OC(=O)CCCCCCC", "note": "[diC8 DAG, 1,2-dioctanoyl-sn-glycerol]", "values": [
      {"measurement": "cell death", "setting": "[2]; [7]", "result": "cell death were observed in the DKO strain"},
      {"measurement": "nuclear DNA fragmentation", "setting": "[3]; [7]", "result": "prominent nuclear DNA fragmentation"},
      {"measurement": "percentage of cells showing DNA fragmentation, dependence on time and concentration", "setting": "[3]; DKO strain, up to 3 hours, up to 0.3 mM", "result": "generally increases with time (up to 3 hours) and concentration"},
      {"measurement": "ROS production", "setting": "DKO cells [4]", "result": "induced dramatic ROS production"}
    ]},
    {"smiles": "CCCC[C@@H](C)[C@@H](OC(=O)C[C@@H](CC(=O)O)C(=O)O)[C@H](C[C@@H](C)C[C@H](O)CCCC[C@@H](O)C[C@H](O)[C@H](C)N)OC(=O)C[C@@H](CC(=O)O)C(=O)O", "note": "[fumonisin B1]", "values": [
      {"measurement": "cells undergoing apoptosis in the presence of the inhibitor", "setting": "[3]; data not shown", "result": "more cells underwent apoptosis"},
      {"measurement": "rescue of palmitate-induced apoptosis", "setting": "[3]; data not shown", "result": "no rescue of apoptosis was observed"}
    ]},
    {"smiles": "CCCCCCC(=O)CCCCCC/C=C/C[C@@H](O)[C@H](O)[C@@](N)(CO)C(=O)O", "note": "[myriocin]", "values": [
      {"measurement": "cells undergoing apoptosis in the presence of the inhibitor", "setting": "[3]; data not shown", "result": "more cells underwent apoptosis"},
      {"measurement": "rescue of palmitate-induced apoptosis", "setting": "[3]; data not shown", "result": "no rescue of apoptosis was observed"}
    ]},
    {"smiles": "CCCCCCCC/C=C\\CCCCCCCC(=O)O", "note": "[oleate, oleic acid]", "values": [
      {"measurement": "apoptosis induced by fatty acid", "setting": "[3]", "result": "caused the DKO cells to undergo apoptosis"},
      {"measurement": "DAG level", "setting": "DKO cells [5]; after 2-hour incubation with oleate, from 1", "result": 2.5, "unit": "nM/mg dry weight"},
      {"measurement": "ROS production", "setting": "DKO cells [4]", "result": "induced dramatic ROS production"}
    ]},
    {"smiles": "CCCCCCCCCCCCCCCC(=O)O", "note": "[palmitate, palmitic acid]", "values": [
      {"measurement": "apoptosis induced by fatty acid", "setting": "[3]", "result": "caused the DKO cells to undergo apoptosis"},
      {"measurement": "DAG level", "setting": "DKO cells [5]; after 2-hour incubation with 0.8 mM palmitate, 1 nmol/mg dry weight before addition", "result": 3.5, "unit": "nmol/mg dry weight"},
      {"measurement": "DAG level", "setting": "wild type cells", "result": 1.5, "unit": "nM/mg dry weight"},
      {"measurement": "ROS production", "setting": "DKO cells [4]", "result": "induced dramatic ROS production"}
    ]},
    {"smiles": "COC(=O)C[C@H](NC(=O)[C@H](C)NC(=O)[C@@H](NC(=O)OCc1ccccc1)C(C)C)C(=O)CF", "note": "[zVADfmk] (Cbz-Val-Ala-Asp(OMe)-CH2F)", "values": [
      {"measurement": "prevention of cell death", "setting": "[2]; [8]", "result": "failed to prevent cell death"},
      {"measurement": "prevention of DNA fragmentation", "setting": "[3]; [8]", "result": "failed to prevent cell death and DNA fragmentation"}
    ]}
  ]
}
